Tests used:
U373 tumour cells = assay: Southern blot of adenoviral replication in U373 cells after cytostatic; type: cell-based
Description: In order to determine the effect of Irinotecan on adenoviral replication 10^6 U373 tumour cells were plated in 10 cm^2 Petri dishes. In a first reaction 5 μM Irinotecan was added after 24 hours. After another 24 hours the cells were infected with 10 pfu/cell dl520. After incubation of 3 days without Irinotecan DNA was isolated in accordance with the procedure described in example 10.
In a parallel reaction the thus prepared U373-cells were not pre-incubated with Irinotecan. After 48 hours of cultivating the cells without Irinotecan, they were infected with 10 pfu/cell dl520 and subsequently incubated without Irinotecan for another 3 days. DNA was isolated as described above.
Subsequently 2 μg DNA were digested with restriction enzyme Kpn I and a Southern Blot analysis performed. A part of the adenoviral genome (position: 22734-24235) generated by means of PCR was used as a probe.
In order to test the effect of Trichostatin A on adenoviral replication, 10^6 U373 tumour cells were plated in 10 cm^2 Petri dishes. After 24 hours 0.25, 0.5 and 0.75 μM Trichostatin A was added. After another 24 hours the cells were infected with 10 pfu/cell dl520.
After 3 days of incubation in medium without Trichostatin DNA was isolated. Subsequently 2 μg DNA were digested with restriction enzyme Kpn I and a Southern Blot analysis performed. […]

[1] = tested on: Coxsackievirus-adenovirus-receptor (CAR); assay: FACS analysis of CAR expression on U373 cells; type: cell-based; conditions: 1 μM Trichostatin
Description: 200,000 U373 cells were plated in 6 well plates. After 24 hours the cells were cultivated with 1 μM Trichostatin for 24 hours. After another 24 hours the cells were isolated. Subsequently, analysis of CAR expression was performed according to a standard protocol using Facs-analysis and the primary antibody anti-CAR clone RmcB from the company Upstate, and a rabbit-anti-mouse FITC as secondary antibody (company DAKO).

HeLa cells = assay: Oncolytic assay with daunorubicine, HeLa; type: cell-based; conditions: 40 ng/ml daunorubicine
Description: (§1) In the practising of the oncolytic assays the following procedure was followed: 200,000 cells (HeLa and U2OS, respectively) were plated into each well of a 6 well plate. On the next day 40 ng/ml (final concentration) of daunorubicine were added. After 3 hours of incubation the cells were infected with 10 and 30 pfu dl520/cell, respectively. Subsequently, the cells were incubated in cytostatic free medium. After 3-5 days the cells were stained using crystal violet.

U2OS cells = assay: Oncolytic assay with daunorubicine, U2OS; type: cell-based, human; conditions: 40 ng/ml daunorubicine
Description: as §1

With CCc1c2c(nc3ccc(OC(=O)N4CCC(N5CCCCC5)CC4)cc13)-c1cc3c(c(=O)n1C2)COC(=O)[C@]3(O)CC [Irinotecan] the “adenoviral replication (dl520) compared to untreated control” value (U373 tumour cells; 5 μM Irinotecan 24 h before 10 pfu/cell dl520, 3 days) was “significantly increased”.
With CC(/C=C/C(=O)NO)=C\[C@@H](C)C(=O)c1ccc(N(C)C)cc1 [Trichostatin A] the “adenoviral replication (dl520) compared to untreated controls” value (U373 tumour cells; 0.25, 0.5 and 0.75 μM Trichostatin A 24 h before 10 pfu/cell dl520, 3 days) was “significantly increased” and the CAR-positive cells [1] was 56.2%.
With COc1cccc2c1C(=O)c1c(O)c3c(c(O)c1C2=O)C[C@@](O)(C(C)=O)C[C@@H]3O[C@H]1C[C@H](N)[C@H](O)[C@H](C)O1 [daunorubicine] the “effect on replication of dl520” value (HeLa cells) was “induces the replication of dl520” and the “effect on replication of dl520” value (U2OS cells) was “induces the replication of dl520”.

Source: US8586354B2, “Adenoviruses, nucleic acids that code for the same and the use of said viruses” (priority 2003, dated 2013)
